Where “and” joins values, the source holds several entries; their conditions need not be identical. Equal entries are not always repeated.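 96-well plates; 48 h exposure; 5 concentrations. Endpoints by linear interpolation between flanking doses. Not reached: highest tested concentration assigned. The concentration for 50% growth inhibition is given as GI50. At the TGI there is no net growth.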 Bounds are passed on as bounds.

The record followed here is PubChem BioAssay (NCI).

Holding throughout (assay): inhibition of tumour cell growth, NCI panel, 48 h
Experiment [1] concerns HOP-62 NSCLC.
In experiment [2] the test system is NCI/ADR-RES ovarian.
The subject of experiment [3] is SF-268 CNS.
Experiment [4] relates to HT29 colon.
In experiment [5] the test system is SK-MEL-2 melanoma.
Experiment [6] relates to A498 renal.
Experiment [7] has as its system UACC-257 melanoma.
Experiment [8] has as its system MCF7 breast.
Experiment [9] deals with SNB-19 CNS.
Experiment [10] relates to HCT-116 colon.

As to `CCOC(=O)C1=C(C)NC2SC(=O)/C(=C\c3ccccc3O)N2C1c1ccccc1` (configuration not stated), the GI50 in experiment [1] is 31.4 µM; in experiment [2] it was 23.3 µM; in experiment [3], 29.7 µM; in [4] it was 19.5 µM; in experiment [5], 22.2 µM; in experiment [6], 11.1 µM. For the same compound, the GI50 in experiment [7] is 42.4 µM; in [8], 86 µM; in experiment [9], 31.5 µM; in [10] it was 23.6 µM. Moreover, the TGI was more than 100 µM in experiment [1]; 60.3 µM in experiment [2]; more than 100 µM in experiment [3]; 41.4 µM in experiment [4]; 59.3 µM in experiment [5]; 33.9 µM in experiment [6]. In addition, the TGI in experiment [7] is more than 100 µM; in experiment [8] it was more than 100 µM; in experiment [9] it was more than 100 µM; in experiment [10] it was 63.6 µM.

As for `c1ccc(-c2cc(C3CO3)c3ccccc3n2)cc1` (configuration not stated), the TGI turned out to be 67.5 µM in [1]; 57.6 µM in [2]; 47.3 µM in experiment [3]; 35.8 µM in experiment [4]; 34.6 µM in experiment [5]; 39.8 µM in experiment [6]. In addition, the TGI in experiment [7] is 42.7 µM; in experiment [8], 47.8 µM; in experiment [9] it was 95.5 µM; in experiment [10], 30.2 µM.

`CC(C)(C)c1[nH]cnc1/C=c1\[nH]c(=O)/c(=C/c2ccccc2)[nH]c1=O`: the GI50 was less than 0.01 µM in experiment [1]; less than 0.01 µM in [2]; less than 0.0123 µM in experiment [3]; less than 0.01 µM in experiment [4]; less than 0.0108 µM in experiment [5]; less than 0.01 µM in experiment [6]. Besides, the GI50 in experiment [7] is 6.32 µM; in [8], 0.0203 µM; in experiment [9], less than 0.01 µM; in [10], less than 0.01 µM. Further, the TGI in experiment [1] was 25.8 µM; in experiment [2], more than 100 µM; in [3], more than 70.1 µM; in experiment [4], 9.44 µM; in [5], 30.7 µM; in experiment [6], 0.51 µM. Besides, the TGI was 22.6 µM in experiment [7], 17 µM in [8], more than 100 µM in experiment [9] and 15.4 µM in [10].

Regarding `CN(N=O)C(=O)N[C@@H](C=O)[C@@H](O)[C@H](O)[C@H](O)CO`, the GI50 in experiment [1], in [3], in [4], in experiment [5], in experiment [7] and in experiment [9] was more than 750 µM throughout. Also, in [10], the GI50 was more than 750 µM. The TGI in experiment [1] was more than 750 µM; in [2], more than 750 µM; in [3], more than 750 µM; in [4], more than 750 µM; in experiment [5], more than 750 µM; in experiment [6] it was more than 628 µM. The TGI in experiment [7] is more than 750 µM; in [8], more than 633 µM; in experiment [9], more than 750 µM; in experiment [10], 653 µM and > 750 µM.

In the case of `O=C(c1ccco1)c1nc2cc(F)ccc2[n+]([O-])c1C(F)(F)F`, the GI50 in experiment [1] was 81.4 µM; in [2] it was 21.5 µM; in [3], 39.2 µM; in experiment [4], 24 µM; in experiment [5] it was 20.8 µM; in experiment [6] it was 86.6 µM. For the same compound, the GI50 in [7] is 22.5 µM; in experiment [8], 56.2 µM; in experiment [9], 47.4 µM; in [10] it was 34 µM. Besides, the TGI in experiment [1] was more than 100 µM; in experiment [2], 66.5 µM; in experiment [3], more than 100 µM; in [4] it was 79 µM; in experiment [5], 50.3 µM; in [6], more than 100 µM. In addition, the TGI in [7] is 67.3 µM; in experiment [8], more than 100 µM; in experiment [9], more than 100 µM; in experiment [10], more than 100 µM.

On to `CN(C)CCNC(=O)Cn1cc([N+](=O)[O-])c(=O)c2ccccc21`, for which the TGI in experiment [1], in [2], in experiment [3], in experiment [4], in experiment [5] and in experiment [6] was more than 100 µM throughout. Besides, the TGI in experiment [7], in [8], in experiment [9] and in [10] was more than 100 µM each time.

Take `COc1ccc2c(c1)C(=O)c1c-2c(Nc2ccc(C(C)=O)cc2)nc2ccccc12`: the GI50 in experiment [1] was 3.96 µM; in experiment [2], 41.7 µM; in experiment [3], 58.7 µM; in experiment [4], 43.7 µM; in [5] it was 97.7 µM; in [6], 35.2 µM. Also, the GI50 in [7] is 91.1 µM; in experiment [8] it was 64.7 µM; in experiment [9] it was 14.5 µM; in experiment [10], 4.17 µM. The TGI was 16.2 µM in experiment [1]; more than 100 µM in experiment [2]; more than 100 µM in experiment [3]; more than 100 µM in experiment [4]; more than 100 µM in experiment [5]; more than 100 µM in [6]. The TGI in [7] was more than 100 µM; in [8] it was more than 100 µM; in [9], 37.3 µM; in experiment [10], 19.2 µM.
